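These data come from cells grown in 96-well plates and exposed to compound for 48 hours at five concentrations. Here, GI50 denotes the concentration required for 50% inhibition of growth. TGI marks complete inhibition of growth.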
Legend:
Assay in all cases: inhibition of tumour cell growth, NCI panel, 48 h
OVCAR-5 ovarian = tested on: OVCAR-5 ovarian
KM12 colon = tested on: KM12 colon
HS 578T breast = tested on: HS 578T breast
MDA-MB-231 breast = tested on: MDA-MB-231 breast
SF-295 CNS = tested on: SF-295 CNS
HCT-15 colon = tested on: HCT-15 colon
SN12C renal = tested on: SN12C renal
CAKI-1 renal = tested on: CAKI-1 renal
MDA-MB-435 = tested on: MDA-MB-435
K-562 leukemia = tested on: K-562 leukemia
SK-MEL-5 melanoma = tested on: SK-MEL-5 melanoma
OVCAR-3 ovarian = tested on: OVCAR-3 ovarian
UACC-257 melanoma = tested on: UACC-257 melanoma
SW-620 colon = tested on: SW-620 colon
NCI-H23 lung = tested on: NCI-H23 lung
SK-MEL-28 melanoma = tested on: SK-MEL-28 melanoma
SNB-75 CNS = tested on: SNB-75 CNS
UACC-62 melanoma = tested on: UACC-62 melanoma
TK-10 renal = tested on: TK-10 renal
SK-OV-3 ovarian = tested on: SK-OV-3 ovarian
RPMI-8226 leukemia = tested on: RPMI-8226 leukemia
EKVX NSCLC = tested on: EKVX NSCLC
NCI-H460 lung = tested on: NCI-H460 lung
COLO 205 colon = tested on: COLO 205 colon
HCT-116 colon = tested on: HCT-116 colon
BT-549 breast = tested on: BT-549 breast
M14 melanoma = tested on: M14 melanoma
DU-145 prostate = tested on: DU-145 prostate
IGROV1 ovarian = tested on: IGROV1 ovarian
UO-31 renal = tested on: UO-31 renal
HCC-2998 colon = tested on: HCC-2998 colon
SNB-19 CNS = tested on: SNB-19 CNS
SK-MEL-2 melanoma = tested on: SK-MEL-2 melanoma
MOLT-4 leukemia = tested on: MOLT-4 leukemia
SF-539 CNS = tested on: SF-539 CNS
CCRF-CEM leukemia = tested on: CCRF-CEM leukemia
HL-60(TB) leukemia = tested on: HL-60(TB) leukemia
PC-3 prostate = tested on: PC-3 prostate
RXF 393 renal = tested on: RXF 393 renal
NCI-H522 lung = tested on: NCI-H522 lung
LOX IMVI melanoma = tested on: LOX IMVI melanoma
HOP-62 NSCLC = tested on: HOP-62 NSCLC
HT29 colon = tested on: HT29 colon
A549 NSCLC = tested on: A549 NSCLC
U251 CNS = tested on: U251 CNS
HOP-92 NSCLC = tested on: HOP-92 NSCLC
MCF7 breast = tested on: MCF7 breast
NCI-H226 lung = tested on: NCI-H226 lung
T-47D breast = tested on: T-47D breast
ACHN renal = tested on: ACHN renal
786-0 renal = tested on: 786-0 renal
MALME-3M melanoma = tested on: MALME-3M melanoma
A498 renal = tested on: A498 renal
SR leukemia = tested on: SR leukemia
SF-268 CNS = tested on: SF-268 CNS
OVCAR-8 ovarian = tested on: OVCAR-8 ovarian
OVCAR-4 ovarian = tested on: OVCAR-4 ovarian
MDA-MB-468 breast = tested on: MDA-MB-468 breast
NCI/ADR-RES ovarian = tested on: NCI/ADR-RES ovarian

SMILES: O=C(NO)c1ccc(CNC(=O)[C@H]2Cc3c([nH]c4ccccc34)[C@H](c3ccccc3)N2)cc1
- GI50 (OVCAR-5 ovarian): 1.42 µM
- TGI (OVCAR-5 ovarian): 6.84 µM
- GI50 (KM12 colon): 5.01 µM
- TGI (KM12 colon): > 23.7 µM
- GI50 (HS 578T breast): 1.38 µM
- TGI (HS 578T breast): 21.8 µM
- GI50 (MDA-MB-231 breast): 3.53 µM
- TGI (MDA-MB-231 breast): 12.4 µM
- GI50 (SF-295 CNS): 3.34 µM
- TGI (SF-295 CNS): 7.89 µM
- GI50 (HCT-15 colon): 11.8 µM
- TGI (HCT-15 colon): > 23.7 µM
- GI50 (SN12C renal): 5.27 µM
- TGI (SN12C renal): 23.5 µM
- GI50 (CAKI-1 renal): 5.69 µM
- TGI (CAKI-1 renal): 16.6 µM
- GI50 (MDA-MB-435): 3.26 µM
- TGI (MDA-MB-435): 13.5 µM
- GI50 (K-562 leukemia): 1.38 µM
- TGI (K-562 leukemia): > 23.7 µM
- GI50 (SK-MEL-5 melanoma): 2.66 µM
- TGI (SK-MEL-5 melanoma): 5.93 µM
- GI50 (OVCAR-3 ovarian): 2.51 µM
- TGI (OVCAR-3 ovarian): 12.6 µM
- GI50 (UACC-257 melanoma): 1.43 µM
- TGI (UACC-257 melanoma): 15.9 µM
- GI50 (SW-620 colon): 2.31 µM
- TGI (SW-620 colon): 7.76 µM
- GI50 (NCI-H23 lung): 4.71 µM
- TGI (NCI-H23 lung): 18.3 µM
- GI50 (SK-MEL-28 melanoma): 3.13 µM
- TGI (SK-MEL-28 melanoma): 22 µM
- GI50 (SNB-75 CNS): 1.99 µM
- TGI (SNB-75 CNS): > 23.7 µM
- GI50 (UACC-62 melanoma): 1.13 µM
- TGI (UACC-62 melanoma): 4.64 µM
- GI50 (TK-10 renal): 2.88 µM
- TGI (TK-10 renal): 19.2 µM
- GI50 (SK-OV-3 ovarian): 3.28 µM
- TGI (SK-OV-3 ovarian): 11.3 µM
- GI50 (RPMI-8226 leukemia): 1.35 µM
- TGI (RPMI-8226 leukemia): > 23.7 µM
- GI50 (EKVX NSCLC): 8.42 µM
- TGI (EKVX NSCLC): > 23.7 µM
- GI50 (NCI-H460 lung): 3.59 µM
- TGI (NCI-H460 lung): > 23.7 µM
- GI50 (COLO 205 colon): 2.36 µM
- TGI (COLO 205 colon): 5.57 µM
- GI50 (HCT-116 colon): 1.13 µM
- TGI (HCT-116 colon): > 23.7 µM
- GI50 (BT-549 breast): 14.2 µM
- TGI (BT-549 breast): > 23.7 µM
- GI50 (M14 melanoma): 5.93 µM
- TGI (M14 melanoma): > 23.7 µM
- GI50 (DU-145 prostate): 4.06 µM
- TGI (DU-145 prostate): > 23.7 µM
- GI50 (IGROV1 ovarian): 3.71 µM
- TGI (IGROV1 ovarian): 15.2 µM
- GI50 (UO-31 renal): 5.58 µM
- TGI (UO-31 renal): > 23.7 µM
- GI50 (HCC-2998 colon): 2.9 µM
- TGI (HCC-2998 colon): 6.91 µM
- GI50 (SNB-19 CNS): 5.19 µM
- TGI (SNB-19 CNS): > 23.7 µM
- GI50 (SK-MEL-2 melanoma): 3.66 µM
- TGI (SK-MEL-2 melanoma): 14.6 µM
- GI50 (MOLT-4 leukemia): 0.763 µM
- TGI (MOLT-4 leukemia): > 23.7 µM
- GI50 (SF-539 CNS): 3.73 µM
- TGI (SF-539 CNS): > 23.7 µM
- GI50 (CCRF-CEM leukemia): 0.785 µM
- TGI (CCRF-CEM leukemia): > 23.7 µM
- GI50 (HL-60(TB) leukemia): 3 µM
- TGI (HL-60(TB) leukemia): > 23.7 µM
- GI50 (PC-3 prostate): 5.39 µM
- TGI (PC-3 prostate): > 23.7 µM
- GI50 (RXF 393 renal): 1.92 µM
- TGI (RXF 393 renal): 6.54 µM
- GI50 (NCI-H522 lung): 0.685 µM
- TGI (NCI-H522 lung): 5.64 µM
- GI50 (LOX IMVI melanoma): 3.35 µM
- TGI (LOX IMVI melanoma): 6.43 µM
- GI50 (HOP-62 NSCLC): 3.6 µM
- TGI (HOP-62 NSCLC): 13.1 µM
- GI50 (HT29 colon): 3.29 µM
- TGI (HT29 colon): 18 µM
- GI50 (A549 NSCLC): 6.77 µM
- TGI (A549 NSCLC): > 23.7 µM
- GI50 (U251 CNS): 2.78 µM
- TGI (U251 CNS): 12.9 µM
- GI50 (HOP-92 NSCLC): 1.59 µM
- TGI (HOP-92 NSCLC): 12.4 µM
- GI50 (MCF7 breast): 3.59 µM
- TGI (MCF7 breast): > 23.7 µM
- GI50 (NCI-H226 lung): 2.7 µM
- TGI (NCI-H226 lung): > 23.7 µM
- GI50 (T-47D breast): 1.03 µM
- TGI (T-47D breast): 9.84 µM
- GI50 (ACHN renal): 5 µM
- TGI (ACHN renal): 16.2 µM
- GI50 (786-0 renal): 9.15 µM
- TGI (786-0 renal): > 23.7 µM
- GI50 (MALME-3M melanoma): 0.545 µM
- TGI (MALME-3M melanoma): > 23.7 µM
- GI50 (A498 renal): 2.46 µM
- TGI (A498 renal): 11.7 µM
- GI50 (SR leukemia): 0.449 µM
- TGI (SR leukemia): > 23.7 µM
- GI50 (SF-268 CNS): 5.5 µM
- TGI (SF-268 CNS): > 23.7 µM
- GI50 (OVCAR-8 ovarian): 1.43 µM
- TGI (OVCAR-8 ovarian): > 23.7 µM
- GI50 (OVCAR-4 ovarian): 8.3 µM
- TGI (OVCAR-4 ovarian): > 23.7 µM
- GI50 (MDA-MB-468 breast): 0.507 µM
- TGI (MDA-MB-468 breast): 2.33 µM
- GI50 (NCI/ADR-RES ovarian): 5.72 µM
- TGI (NCI/ADR-RES ovarian): > 23.7 µM

Reference: PubChem BioAssay (NCI)
